Laboratory results taken from patent publication US10881656B2, “HIF inhibitors and use thereof” (The General Hospital Corporation, priority 2008, dated 2021).

Experiments:
[1] = tested on: HUVEC; assay: HUVEC proliferation assay; format: cell-based, human; details: conditioned supernatant from compound-treated 786-O cells
Protocol: HUVEC cells were plated in a 96 well plate in HUVEC minimal medium (Chembrex, EBM-2). 24 hours later, medium was replaced with a 1:4 mix of tissue culture medium that had been conditioned from compound or DMSO-only treated 786-O cells and HUVEC minimal medium. HUVEC proliferation was quantified by a colorimetric proliferation assay (WST-1, Roche, Germany).
Conditioned tissue culture medium from compound-treated 786-O cells was tested for its ability to induce human umbilical vein endothelial cell (HUVEC) proliferation.

[2] = tested on: HIF-2a; assay: HIF-2a protein stability (cycloheximide, 35S-methionine pulse chase); format: cell-based, human; details: 786-O cells; for HIF-2a protein stability after cycloheximide: 10 μg/mL cycloheximide
Protocol: Cells were treated with medium only, DMSO, or compound as described for western blots. Following the second day of compound incubation, 10 μg/mL cycloheximide (CHx) was added to halt de novo protein synthesis and time points were taken. Protein quantification and Western blots were performed as described.
Cells were treated with medium only, DMSO, or compound as described for western blots. Following the second day of treatment, cells were washed twice in PBS and then placed into medium only, DMSO, or labeling medium (methionine minus DMEM supplemented with 1× glutamine and 5% dialyzed FBS) and pulse-labeled for 30 minutes at 37° C. with 0.5 mCi ^35S-Methionine (New England Nuclear) per p100 plate. Cells were washed twice in PBS and lysed with RIPA buffer supplemented with protease inhibitors. […] In the case of the pulse-chase experiment, two identically treated plates were placed into chasing medium (DMEM supplemented with 10% Fetal Clone I, 1× Glutamine and 3 mg/mL methionine), placed back into the 37° C. incubator and harvested after 1.5 and 3 hours. Immunoprecipitated samples were subjected to SDS-PAGE, enhanced in sodium salicylate, dried and exposed for 2-3 days before the film was quantified by densitometry.
Quantitative RT-PCR was performed on total RNA harvested from 7H4 cells treated with medium only, DMSO or compound. […] To test whether the compounds alter HIF-2a stability, the inventors assessed protein half-life following the addition of cycloheximide in compound versus DMSO-only treated cells (see FIG. 10).

[3] = tested on: 786-O cells; assay: Cellular toxicity at IC50 concentrations; format: cell-based, human
[4] = tested on: HIF and VHL target genes; assay: Gene expression profiling and gene set enrichment analysis (GSEA) of compound treated 786-O cells; format: cell-based, human; details: for regulation of HIF target genes: 786-O cells at experimentally determined IC50 concentrations; for NES, gene set PRC3, VHL null (markers of PRC3 cells compared to WT8 cells) / NES, gene set Schofield, HIF (validated HIF-regulated genes) / NES, gene set Staller, VHL WT (markers of VHL WT cells compared to VHL null cells) / NES, gene set Staller, VHL null (markers of VHL null cells compared to VHL WT cells) / NES, gene set WT8, VHL WT (markers of WT8 cells compared to PRC3 cells): 786-O cells, GSEA normalized enrichment score
Protocol: RNA from compound treated 786-O cells was isolated as described for qRT-PCR experiments. Labeled cRNA was prepared and hybridized to Affymetrix U133 Plus 2.0 microarrays according to the manufacturer's protocols. Scans were processed using Affymetrix MASS software and median scaled. Gene expression values less than a minimum threshold of 20 or a maximum threshold of 16000 were set to 20 and 16000, respectively. Genes with minimal variation across the dataset were discarded (maximum/minimum<3 or maximum−minimum<100). Class neighbors were identified with GenePattern software using the signal to noise metric (Golub et al., 1999). Hierarchical clustering was performed using dCHIP software. Gene set enrichment analysis was performed as described (Mootha et al., 2003) and significance was determined by permutation of the gene labels. Gene expression signatures were analyzed using the Connectivity Map webtool (build 01). Full details of the Connectivity Map dataset and analytics are provided elsewhere (Lamb et al., 2006). For PGJ2 expression analysis, raw gene-expression data have GEO series accession number GSE13818 and compound signatures from which non-HG-U133A probe sets were removed (see Table 6) were used to query the Connectivity Map (build 02).
Total RNA was extracted from stable 786-O derived VHL-reconstituted (WT8), HIF-2a knock down (pTR) and their respective vector only control (PRC3 and pTV) cells and labeled cRNA was hybridized to oligonucleotide arrays. […] Compound-treated parental 786-O cells were subjected to the same analysis. […] The gene set enrichment analysis (GSEA) algorithm was used to investigate whether the compounds affected the expression of genes identified as VHL and HIF targets in other cell types (Mootha et al., 2003).

[5] = tested on: HIF-1a; assay: Western blot for HIF-1a in hypoxic CWR22R and Hep3B cells; format: cell-based, human; details: hypoxia
Protocol: The consensus sequence of the loop and the mandatory 5′ cytosine bulge are highlighted with light blue circles. […] Duplicate plates of 786-O derived lines expressing the putative wild-type or mutant HIF-1a IRE were cultured in the presence of compound as described for FIG. 1, with the exception that one set was placed at 1% oxygen for 24 hours following the first day's medium-change. Cells were treated with M, medium only; D, DMSO; or compounds, as indicated at the following concentrations: 40, 40 μM; 41, 30 μM; 76, 10 μM; 77, 5 μM. […] CWR22R or Hep3B cells were treated with compound and subjected to hypoxia as described above. B-Actin is shown for loading control. Cells were treated with M, medium only; D, DMSO; or compounds, as indicated at the following concentrations: 40, 40 μM; 41, 30 μM; 76, 20 μM; 77, 7.5 μM.
Hypoxia stabilized HIF-2a in VHL-reconstituted WT8 cells, but treatment with compounds diminished hypoxia-induced HIF-2a expression (FIG. 3C).

[6] = tested on: Transferrin Receptor 1 (TfR1) mRNA; assay: qRT-PCR for Transferrin Receptor 1 mRNA; details: for Transferrin Receptor 1 mRNA expression: compound treated 786-O cells
[7] = tested on: HIF-2a mRNA; assay: qRT-PCR for HIF-2a mRNA expression; format: cell-based, human; details: 786-O derived cells, qRT-PCR normalized to B2M
Protocol: ID NO: 1) and [NT] […] ID NO: 3) and [NT] ID NO: 4) for […] ID NO: 5) and [NT] ID NO: 6) for Transferrin Receptor 1 ([…] ID NO: 7) and [NT] ID NO: 8) for […] ID NO: 9) and [NT] ID NO: 10) for […] ID NO. 11) and [NT] ID NO: 12) for EGLN3. […] ID NO: 13) and [NT] ID NO: 14). Quantitative RT-PCR was performed on total RNA harvested from 7H4 cells treated with medium only, DMSO or compound. […] To test whether the compounds alter HIF-2a stability, the inventors assessed protein half-life following the addition of cycloheximide in compound versus DMSO-only treated cells (see FIG. 10).

| Structure (SMILES) | angiogenic activity of renal carcinoma cell supernatant (HUVEC proliferation) [1] | HIF-2a protein stability by 35S-methionine pulse chase [2] | HIF-2a protein stability after cycloheximide [2] | cellular toxicity [3] | regulation of HIF target genes [4] | NES, gene set PRC3, VHL null (markers of PRC3 cells compared to WT8 cells) [4] | NES, gene set Schofield, HIF (validated HIF-regulated genes) [4] | NES, gene set Staller, VHL WT (markers of VHL WT cells compared to VHL null cells) [4] | NES, gene set Staller, VHL null (markers of VHL null cells compared to VHL WT cells) [4] | NES, gene set WT8, VHL WT (markers of WT8 cells compared to PRC3 cells) [4] | hypoxic induction of HIF-1a [5] | Transferrin Receptor 1 mRNA expression [6] | HIF-2a mRNA expression [7] | TfR1 mRNA stability ([6]; 786-O cells following addition of Actinomycin D) |
| --- | --- | --- | --- | --- | --- | --- | --- | --- | --- | --- | --- | --- | --- | --- |
| CC1(C)CC(=O)C=C(Sc2ccc(C#N)cc2[N+](=O)[O-])S1 [Compound 77, 4-[(2,2-dimethyl-4-oxo-3,4-dihydro-2H-thiin-6-yl)thio]-3-nitrobenzonitrile] | decrease the angiogenic activity of renal carcinoma cell supernatant | have no affect on HIF-2a protein stability | no compound of 40, 41, 76 and 77 significantly affects HIF-2a stability | comparative lack of cellular toxicity at IC50 concentrations | coordinately downregulate HIF target genes | NES: −3.15 | NES: −1.78 | NES: 1.53 | NES: −2.45 | NES: 1.88 | indirectly suppress hypoxic induction of HIF-1a in multiple cell types | increase expression of Transferrin Receptor 1 mRNA | do not effect HIF-2a mRNA expression |  |
| COC(=O)c1sccc1N/N=C(/C#N)S(C)(=O)=O [Compound 76, methyl 3-{2-[cyano(methylsulfonyl)methylene] hydrazino}thiophene-2-carboxylate] | decrease the angiogenic activity of renal carcinoma cell supernatant | have no affect on HIF-2a protein stability | no compound of 40, 41, 76 and 77 significantly affects HIF-2a stability | comparative lack of cellular toxicity at IC50 concentrations | coordinately downregulate HIF target genes | NES: −3.15 | NES: −1.78 | NES: 1.53 | NES: −2.45 | NES: 1.88 | indirectly suppress hypoxic induction of HIF-1a in multiple cell types | increase expression of Transferrin Receptor 1 mRNA | do not effect HIF-2a mRNA expression | decreases TfR1 mRNA stability |
| CCCCC/C=C/C=C1/C(=O)C=C[C@@H]1C/C=C\CCCC(=O)O [PGJ2, 15-deoxy-Δ^12,14-prostaglandin J2] |  |  | no indication that PGJ2 affects HIF2a protein half-life |  |  |  |  |  |  |  |  |  | no concomitant decrease in HIF2a mRNA expression |  |
| C/C(=C\c1ccccc1)C(=O)CCN(C)C.Cl [Compound 40, 5-(dimethylamino)-2-methyl-1-phenyl-1-penten-3-one hydrochloride] | decrease the angiogenic activity of renal carcinoma cell supernatant | have no affect on HIF-2a protein stability | no compound of 40, 41, 76 and 77 significantly affects HIF-2a stability | comparative lack of cellular toxicity at IC50 concentrations | coordinately downregulate HIF target genes | NES: −3.50 | NES: −1.65 | NES: −1.75 | NES: −2.48 | NES: −1.86 | indirectly suppress hypoxic induction of HIF-1a in multiple cell types | increase expression of Transferrin Receptor 1 mRNA | do not effect HIF-2a mRNA expression |  |
| COc1ccc(O)c(/C=C/C(=O)c2c(O)cc(C)oc2=O)c1 [Compound 41, 4-hydroxy-3-[3-(2-hydroxy-5-meoxyphenyl)acryloyl]-6-methyl-2H-pyran-2-one] | decrease the angiogenic activity of renal carcinoma cell supernatant | have no affect on HIF-2a protein stability | no compound of 40, 41, 76 and 77 significantly affects HIF-2a stability | comparative lack of cellular toxicity at IC50 concentrations | coordinately downregulate HIF target genes | NES*: −2.98 | NES: −1.62 | NES: 1.62 | NES: −2.42 | NES: 1.58 | indirectly suppress hypoxic induction of HIF-1a in multiple cell types | increase expression of Transferrin Receptor 1 mRNA | do not effect HIF-2a mRNA expression |  |
